Reference: US10799605B2 (3B PHARMACEUTICALS GMBH, priority 2014, dated 2020)
Like-named read-outs stand apart in the source and are kept apart here.

Key:
NTR1 [1] = target: T1, NTR1 (Homo sapiens (Human), UniProt P30989); test: Functional Ca2+ mobilisation assay (example part I); assay type: cell-based
Excerpt: (§1) Ca^2+ ions are usually kept at nanomolar levels in the cytosol of cells, and act in a number of signal transduction pathways as second messengers. […] Changes in calcium ion concentration in standard assay protocols can be readily detected with fluorescent dyes that emit light when changes in intracellular Ca^2+ ion concentration occur. Given the transient nature of these responses, they are often read with instrumentation that has ‘inject and read’ capability.
(§2) HT29 or NTR1-expressing HEK293 cells were trypsinized and seeded into black flat clear-bottom 96-well plates (Corning, Amsterdam, The Netherlands) at […] cells per well. After 24 h incubation at 37° C. and 5% CO2, cells were washed twice with wash buffer (130 mM NaCl, 5 mM KCl, 10 mM Hepes, 2 mM CaCl2, 10 mM Glucose, pH 7.4) and loaded with 100 μl of Ca5 dye (Molecular Devices, Biberach, Germany) for 1 h at 37° C. and 5% CO2. For agonist assays, serial dilutions of agonistic substances were added to the cells loaded with dye and the change of the fluorescent signal was recorded continually for approx. 90 s using a FlexStation II (Molecular Devices, Biberach, Germany). Addition of wash buffer served as a control. Thus, EC50 concentrations for each conjugate were computed and provided a measure for the potency of the substance. For antagonist assays, cells loaded with 100 μl of Ca5-dye were pre-incubated with serial dilutions of antagonistic substances for 30 min, before the EC80-concentration of agonist was added to the cells and the change of the fluorescent signal was recorded continually for approx. 90 s. Thus, IC50 concentrations were computed for each conjugate and provided a measure for the inhibitory activity of the conjugates at the NTR1.

NTR1 [2] = target: T1, NTR1; test: Radioligand binding assay NTR1 (example part I)
Method: In order to determine the binding affinity of compounds comprising a radiolabel for NTR1, a radioligand binding assay was carried out. A radioligand is a radioactive biochemical substance that is used for diagnosis or for research-oriented study of cellular receptor systems of the body. In […] systems it is often used to quantify the binding of a test molecule to the binding site of radioligand. The higher the affinity of the molecule, the more radioligand is displaced from the binding site. The amount of bound radioligand can be measured by scintillation counting and thereby quantified. This assay is commonly used to calculate binding constants of molecules to receptors.
The NTR1 radioligand binding assay was performed by Cerep (Celle l'Evescault, France; Catalog reference 0109) according to Vita et al., FEBS Lett., 1993, 317, 139-142. NTR1 was prepared from CHO cells recombinantly expressing the human receptor and incubated with 0.05 nM ^125I-(Tyr^3-neurotensin) and serial dilutions of the test compounds. […] The result for each test compound is expressed as IC50 concentration and provides a measure for the affinity of the test compound for NTR1.

NTR1 [3] = target: T1, NTR1; test: Functional Ca2+ mobilisation assay (example part II); assay type: cell-based; conditions: antagonist assay
Excerpt: as §1, with “intracellular Ca2^+” for “intracellular Ca^2+”
as §2, with “compound” for “conjugate”, “compounds” for “conjugates”

[4] = agonist assay, * bell-shaped curves, EC50 from ascending part of the curve, read-out: Agonistic Effect EC50
[5] = antagonist assay, 30 min pre-incubation, EC80-concentration of agonist, read-out: Antagonistic Effect IC50
[6] = 0.05 nM 125I-(Tyr3-neurotensin), 60 min at 4° C., read-out: IC50

T1 sequence (P30989 whole entry): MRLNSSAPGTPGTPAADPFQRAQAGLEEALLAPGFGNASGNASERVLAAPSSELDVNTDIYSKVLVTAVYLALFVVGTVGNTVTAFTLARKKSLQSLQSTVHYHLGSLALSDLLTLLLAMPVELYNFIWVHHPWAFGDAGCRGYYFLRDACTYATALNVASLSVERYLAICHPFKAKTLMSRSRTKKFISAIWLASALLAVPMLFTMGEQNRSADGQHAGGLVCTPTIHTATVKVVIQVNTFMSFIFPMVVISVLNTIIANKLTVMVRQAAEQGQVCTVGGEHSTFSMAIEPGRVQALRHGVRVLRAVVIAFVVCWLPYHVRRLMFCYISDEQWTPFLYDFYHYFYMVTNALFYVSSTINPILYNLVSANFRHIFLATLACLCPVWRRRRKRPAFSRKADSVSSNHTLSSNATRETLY

Compound	EC50 (NTR1 [1]; [4]) [nM]	IC50 (NTR1 [1]; [5]) [nM]	IC50 (NTR1 [2]; [6]) [nM]	EC50 (NTR1 [1]) [nM]	IC50 (NTR1 [1]) [nM]	IC50 (NTR1 [2]) [nM]	other results
COc1cccc(OC)c1-c1cc(C(=O)NC2(C(=O)O)C3CC4CC(C3)CC2C4)nn1-c1ccc(C(=O)N(C)CCCN(C)CCCN(C)C(=O)CCCNC(=O)CCC(=O)NCCCOCCOCCOCCCNC(=O)[C@H](CCCCNC(=O)CN2CCN(CC(=O)O)CCN(CC(=O)O)CCN(CC(=O)O)CC2)NC(=O)CCC(=O)NCCCOCCOCCOCCCNC(=O)CCCC(=O)N(C)CCCN(C)CCCN(C)C(=O)c2ccc(-n3nc(C(=O)NC4(C(=O)O)C5CC6CC(C5)CC4C6)cc3-c3c(OC)cccc3OC)c(C(C)C)c2)cc1C(C)C (stereo partly shown) [(12), 1206-Glutar-Ttds-Lys(DOTA)-Ttds-GABA-1206]	> 50000	2.5	2.5				
COc1cccc(OC)c1-c1cc(C(=O)NC2(C(=O)O)C3CC4CC(C3)CC2C4)nn1-c1ccc(C(=O)N(C)CCCN(C)CCCN(C)C(=O)CCCNC(=O)[C@H](CCCCNC(=O)CN2CCN(CC(=O)O)CCN(CC(=O)O)CCN(CC(=O)O)CC2)NC(=O)CCCC(=O)N(C)CCCN(C)CCCN(C)C(=O)c2ccc(-n3nc(C(=O)NC4(C(=O)O)C5CC6CC(C5)CC4C6)cc3-c3c(OC)cccc3OC)c(C(C)C)c2)cc1C(C)C (stereo partly shown) [(13), 1206-Glutar-Lys(DOTA)-GABA-1206]	> 50000	6.1	2.2				
COc1cccc(OC)c1-c1cc(C(=O)NC2(C(=O)O)C3CC4CC(C3)CC2C4)nn1-c1ccc(C(=O)N(C)CCCN(C)CCCN(C)C(=O)CCCC(=O)NCCCCCC(=O)N[C@@H](CCCCNC(=O)CN2CCN(CC(=O)O)CCN(CC(=O)O)CCN(CC(=O)O)CC2)C(=O)N[C@@H](CCCCNC(=O)CCCC(=O)N(C)CCCN(C)CCCN(C)C(=O)c2ccc(-n3nc(C(=O)NC4(C(=O)O)C5CC6CC(C5)CC4C6)cc3-c3c(OC)cccc3OC)c(C(C)C)c2)C(N)=O)cc1C(C)C (stereo partly shown) [(14), 1206-Glutar-Ahx-Lys(DOTA)-(ε-Lys-NH2)-Glutar-1206]	> 50000	2.3	2.4				
COc1cccc(OC)c1-c1cc(C(=O)NC2(C(=O)O)C3CC4CC(C3)CC2C4)nn1-c1ccc(C(=O)N(C)CCCN(C)CCCN(C)C(=O)CCCC(=O)NCCCC[C@H](NC(=O)CCC(=O)NCCCOCCOCCOCCCNC(=O)CCC(=O)NCCCOCCOCCOCCCNC(=O)CCC(=O)NCCCOCCOCCOCCCNC(=O)[C@H](CCCCNC(=O)CN2CCN(CC(=O)O)CCN(CC(=O)O)CCN(CC(=O)O)CC2)NC(=O)CCC(=O)NCCCOCCOCCOCCCNC(=O)CCC(=O)NCCCOCCOCCOCCCNC(=O)CCC(=O)NCCCOCCOCCOCCCNC(=O)CCCC(=O)N(C)CCCN(C)CCCN(C)C(=O)c2ccc(-n3nc(C(=O)NC4(C(=O)O)C5CC6CC(C5)CC4C6)cc3-c3c(OC)cccc3OC)c(C(C)C)c2)C(N)=O)cc1C(C)C (stereo partly shown) [(15), 1206-Glutar-Ttds3-Lys(DOTA)-Ttds3-(ε-Lys-NH2)-Glutar-1206]				> 50000	2.3	4.7	
COc1cccc(OC)c1-c1cc(C(=O)NC2(C(=O)O)C3CC4CC(C3)CC2C4)nn1-c1ccc(C(=O)N(C)CCCN(C)CCCN(C)C(=O)CCCC(=O)NCCCOCCOCCOCCCNC(=O)CCC(=O)N[C@@H](CCCCNC(=O)CN2CCN(CC(=O)O)CCN(CC(=O)O)CCN(CC(=O)O)CC2)C(=O)NCCCOCCOCCOCCCNC(=O)CCC(=O)NCCCC(=O)N[C@@H](CCCNC(=N)N)C(=O)N[C@@H](CCCNC(=N)N)C(=O)N2CCC[C@H]2C(=O)N[C@@H](Cc2ccc(O)cc2)C(=O)N[C@H](C(=O)N[C@@H](CC(C)C)C(=O)O)C(C)(C)C)cc1C(C)C (stereo partly drawn) [(16), 1206-Glutar-Ttds-Lys(DOTA)-Ttds-GABA-Arg-Arg-Pro-Tyr-Tle-Leu-OH]				4	3.8	0.14	shape of EC50 curve (NTR1 [1]; agonist assay): bell-shaped EC50 curves
COc1cccc(OC)c1-c1cc(C(=O)NC2(C(=O)O)C3CC4CC(C3)CC2C4)nn1-c1ccc(C(=O)N(C)CCCN(C)CCCN(C)C(=O)CCCC(=O)NCCCOCCOCCOCCCNC(=O)CCC(=O)N[C@@H](CCCCNC(=O)CN2CCN(CC(=O)O)CCN(CC(=O)O)CCN(CC(=O)O)CC2)C(=O)NCCCOCCOCCOCCCNC(=O)CCC(=O)NCCCC(=O)N[C@H](CCCNC(=N)N)C(=O)N[C@@H](CCCNC(=N)N)C(=O)N2CCC[C@H]2C(=O)N[C@@H](Cc2ccc(O)cc2)C(=O)N[C@H](C(=O)N[C@@H](CC(C)C)C(=O)O)C(C)(C)C)cc1C(C)C (stereo partly drawn) [(17), 1206-Glutar-Ttds-Lys(DOTA)-Ttds-GABA-arg-Arg-Pro-Tyr-Tle-Leu-OH]				7	3.4	0.32	shape of EC50 curve (NTR1 [1]; agonist assay): bell-shaped EC50 curves
COc1cccc(OC)c1-c1cc(C(=O)NC2(C(=O)O)C3CC4CC(C3)CC2C4)nn1-c1ccc(C(=O)N(C)CCCN(C)CCCN(C)C(=O)CCCC(=O)NCCCOCCOCCOCCCNC(=O)CCC(=O)NCCCOCCOCCOCCCNC(=O)CCC(=O)NCCCOCCOCCOCCCNC(=O)CCC(=O)N[C@@H](CCCCNC(=O)CN2CCN(CC(=O)O)CCN(CC(=O)O)CCN(CC(=O)O)CC2)C(=O)NCCCOCCOCCOCCCNC(=O)CCC(=O)NCCCOCCOCCOCCCNC(=O)CCC(=O)NCCCOCCOCCOCCCNC(=O)CCC(=O)NCCCC(=O)N[C@H](CCCNC(=N)N)C(=O)N[C@@H](CCCNC(=N)N)C(=O)N2CCC[C@H]2C(=O)N[C@@H](Cc2ccc(O)cc2)C(=O)N[C@H](C(=O)N[C@@H](CC(C)C)C(=O)O)C(C)(C)C)cc1C(C)C (stereo partly drawn) [(18), 1206-Glutar-Ttds3-Lys(DOTA)-Ttds3-GABA-arg-Arg-Pro-Tyr-Tle-Leu-OH]				> 50000	3.8	2.7	
COc1cccc(OC)c1-c1cc(C(=O)N[C@H](C(=O)O)C2CCCCC2)nn1-c1ccc(C(=O)N(C)CCCN(C)CCCN(C)C(=O)CN2CCN(CC(=O)O)CCN(CC(=O)O)CCN(CC(=O)O)CC2)cc1C(C)C [(IVa), (S)-2-{[1-{4-[(3-{[3-(DOTA-methyl-amino)-propyl]-methyl-amino}-propyl)-methyl-carbamoyl]-2-isopropyl-phenyl}-5-(2,6-dimethoxy-phenyl)-1H-pyrazole-3-carbonyl]-amino}-cyclohexyl-acetic acid]							IC50 (NTR1 [3]): 125 nM
COc1cccc(OC)c1-c1cc(C(=O)NC2(C(=O)NCCNC(=O)CN3CCN(CC(=O)O)CCN(CC(=O)O)CCN(CC(=O)O)CC3)C3CC4CC(C3)CC2C4)nn1-c1ccc(C(=O)N(C)CCCN(C)C)cc1C(C)C (stereo not shown) [(XVII), 5-(2,6-Dimethoxy-phenyl)-1-{4-[(3-dimethylamino-propyl)-methyl-carbamoyl]-2-isopropyl-phenyl}-1H-pyrazole-3-carboxylic acid [2-(2-DOTA-amino-ethylcarbamoyl)-adamantan-2-yl]-amide, reference compound]							IC50 [nM] Ca (NTR1 [3]): inactivity
